Experimental data reported in US20030225152A1, “3-(Arylamino)methylene-1, 3-dihydro-2h-indol-2-ones as kinase inhibitors” (priority 2001, published 2003).

Experiments:
[1] = target: T1, cytoplasmic domain of the human VEGF receptor (VEGFR-2) (Homo sapiens, UniProt P35968); assay: KDR Assay; format: biochemical; details: His-VEGFR-2; 3.6 μM ATP
T1 construct: The cytoplasmic domain of the human VEGF receptor (VEGFR-2) was expressed as a Histidine-tagged fusion protein; Histidine tag
Description: The cytoplasmic domain of the human VEGF receptor (VEGFR-2) was expressed as a Histidine-tagged fusion protein following infection of insect cells using an engineered baculovirus. His-VEGFR-2 was purified to homogeneity, as determined by SDS-PAGE, using nickel resin chromatography. Kinase assays were performed in 96 well microtiter plates that were coated overnight with 30 μg of poly-Glu-Tyr (4:1) in 10 mM Phosphate Buffered Saline (PBS), pH 7.2-7.4. The plates were incubated with 1% BSA and then washed four times with PBS prior to starting the reaction. Reactions were carried out in 120 μL reaction volumes containing 3.6 μM ATP in kinase buffer (50 mM Hepes buffer pH 7.4, 20 mM MgCl2, 0.1 mM MnCl2 and 0.2 mM Na3VO4). Test compounds were reconstituted in 100% DMSO and added to the reaction to give a final DMSO concentration of 5%. Reactions were initiated by the addition 0.5 ng of purified protein. Following a ten minute incubation at 25° C., the reactions were washed four times with PBS containing 0.05% Tween-20. 100 μl of a monoclonal anti-phosphotyrosine antibody-peroxidase conjugate was diluted 1:10000 in PBS-Tween-20 and added to the wells for 30 minutes. Following four washes with PBS-Tween-20, 100 μl of O-phenylenediamine Dihydrochloride in Phosphate-citrate buffer, containing urea hydrogen peroxide, was added to the wells for 7 minutes as a colorimetric substrate for the peroxidase. The reaction was terminated by the addition of 100 μl of 2.5N H2SO4 to each well and read using a microplate ELISA reader set at 492 nm. IC50 values for compound inhibition were calculated directly from graphs of optical density (arbitrary units) versus compound concentration following subtraction of blank values.

[2] = tested on: VEGF induced increases in intracellular calcium levels in HUVEC (human umbilical vein endothelial cells); assay: VEGF Stimulated Ca++ Signal in vitro (FLIPR); format: cell-based; details: VEGF 5 ng/mL; for IC50: 0.01 to 10.0 μM
Procedure, shortened: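 HUVEC loaded with Fluo-4 (45 min, 37° C.), washed, then pre-incubated 30 min with compound (10 μM single dose or 0.01–10.0 μM; 0.1% DMSO) before 5 ng/mL VEGF. Fluorescence at 516 nm read by FLIPR; IC50 from % inhibition of max-min VEGF response.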

T1 sequence (P35968 786-1356): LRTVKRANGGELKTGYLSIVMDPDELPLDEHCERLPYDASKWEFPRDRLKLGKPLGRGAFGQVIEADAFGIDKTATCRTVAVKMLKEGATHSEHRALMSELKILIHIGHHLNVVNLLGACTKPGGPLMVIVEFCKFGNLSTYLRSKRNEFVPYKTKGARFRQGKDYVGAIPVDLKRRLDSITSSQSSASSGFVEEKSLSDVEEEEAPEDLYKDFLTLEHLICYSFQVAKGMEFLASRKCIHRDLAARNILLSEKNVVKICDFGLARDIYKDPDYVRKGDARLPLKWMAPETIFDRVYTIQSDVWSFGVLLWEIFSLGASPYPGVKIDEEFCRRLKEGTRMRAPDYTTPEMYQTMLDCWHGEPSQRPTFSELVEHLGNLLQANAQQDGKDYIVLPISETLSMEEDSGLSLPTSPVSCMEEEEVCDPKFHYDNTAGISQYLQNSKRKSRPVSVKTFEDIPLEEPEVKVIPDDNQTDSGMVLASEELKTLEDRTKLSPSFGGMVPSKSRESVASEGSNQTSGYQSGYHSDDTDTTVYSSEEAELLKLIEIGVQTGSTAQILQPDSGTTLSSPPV

IC50 [1] [nM]	Structure (SMILES)	inhibition at 10 µM ([2]; Homo sapiens, 10 μM) [%]	IC50 ([2]; Homo sapiens) [nM]	IC50 [2] [nM]	VEGF Stimulated Ca^++ signal assay % inhibition @ 10 μM ([2]; 10 μM) [%]
480	CCc1ccc(NC=C2C(=O)Nc3ccccc32)cc1 [Example 5, 3-[(4-Ethyl-phenylamino)-methylene]-1,3-dihydro-indol-2-one]	77.3	1820		
520	CCc1cccc(NC=C2C(=O)Nc3ccccc32)c1 [Example 6]	90.1	1840		
690	COc1ccc(NC=C2C(=O)Nc3ccccc32)cc1 [Example 7, 3-[(4-Methoxy-phenylamino)-methylene]-1,3-dihydro-indol-2-one]	94.5	≤ 1000	950	
910	O=C1Nc2ccccc2C1=CNc1cccc(O)c1 [Example 15, 3-[(3-Hydroxy-phenylamino)-methylene]-1,3-dihydro-indol-2-one]	93.7			
1270	COc1cc(NC=C2C(=O)Nc3ccccc32)cc(OC)c1 [Example 16, 3-[(3,5-Dimethoxy-phenylamino)-methylene]-1,3-dihydro-indol-2-one]	50	≥ 10000		
790	CC(C)(C)c1ccc(NC=C2C(=O)Nc3ccccc32)cc1 [Example 17, 3-[(4-tert-Butyl-phenylamino)-methylene]-1,3-dihydro-indol-2-one]	76.5	3000		
1210	Cc1ccc(NC=C2C(=O)Nc3ccccc32)cc1C [Example 20, 3-[(3,4-Dimethyl-phenylamino)-methylene]-1,3-dihydro-indol-2-one]	63	1820		
720	COc1ccc(NC=C2C(=O)Nc3ccccc32)cc1F [Example 21, 3-[(3-Fluoro-4-methoxy-phenylamino)-methylene]-1,3-dihydro-indol-2-one]	88	1500		
680	N#Cc1ccc(NC=C2C(=O)Nc3ccccc32)cc1 [Example 29, 3-[(4-Cyanophenylamino)-methylene]-1,3-dihydro-indol-2-one]	81.5	7290		
570	O=C1Nc2ccccc2C1=CNc1ccc2[nH]ccc2c1 [Example 31, 3-[(5-Indolylamino)-methylene]-1,3-dihydro-indol-2-one]	98.6	≤ 1000	720	
600	O=C1Nc2ccccc2C1=CNc1ccc2[nH]ncc2c1 [Example 32, 3-[(5-Indazolylamino)-methylene]-1,3-dihydro-indol-2-one]	72.2	2660		
880	NC(=O)c1ccc(NC=C2C(=O)Nc3ccccc32)cc1 [Example 33, 3-[(4-Benzamidylamino)-methylene]-1,3-dihydro-indol-2-one]	95.9	1350		
470	CC(=O)Nc1ccc(NC=C2C(=O)Nc3ccccc32)cc1 [Example 34, 3-[(4-Acetanilidylamino)-methylene]-1,3-dihydro-indol-2-one]	94.5	2250		
190	O=C(O)Cc1cccc(NC=C2C(=O)Nc3ccccc32)c1 [Example 35, (3-[(2-Oxo-1,2-dihydro-indol-3-ylidenemethyl)-amino]-phenyl-)acetic acid]	95.1	3100		
500	NS(=O)(=O)c1ccc(NC=C2C(=O)Nc3ccccc32)cc1 [Example 38, 2-Oxo-1,2-dihydro-indol-3-ylidenemethyl-sulfanilamide]			1450	92.08
230	O=C1Nc2ccccc2C1=CNc1ccc2ncsc2c1 [Example 43, 3-[(6-Benzthioazolylamino)-methylene]-1,3-dihydro-indol-2-one]	84	1740		
660	O=C1Nc2ccccc2C1=CNc1ccc(C(=O)O)c(O)c1 [Example 44, 2-Hydroxy-4-[(2-oxo-1,2-dihydro-indol-3-ylidenemethyl)-amino]-benzoic acid]	96	2020		

IC50 [1] [nM]	Structure (SMILES)	inhibition at 10 µM ([2]; Homo sapiens, 10 μM) [%]	IC50 ([2]; Homo sapiens) [nM]	IC50 [2] [nM]	VEGF Stimulated Ca^++ signal assay % inhibition @ 10 μM ([2]; 10 μM) [%]
740	Cc1ccc(NC=C2C(=O)Nc3ccccc32)cc1O [Example 48, 3-[(3-Hydroxy-4-methyl-phenylamino)-methylene]-1,3-dihydro-indol-2-one]	95.4			
510	COc1ccc(NC=C2C(=O)Nc3ccccc32)cc1O [Example 49, 3-[(3-Hydroxy-4-methoxy-phenylamino)-methylene]-1,3-dihydro-indol-2-one]	97.1			
550	O=C1Nc2ccccc2C1=CNc1ccc(OC(F)F)cc1 [Example 50, 3-{[4-(1,1-Difluoro-methoxy)-phenylamino]-methylene}-1,3-dihydro-indol-2-one]	93.5	1650		
580	CC(C)c1ccc(NC=C2C(=O)Nc3ccccc32)cc1 [Example 52, 3-[(4-Isopropyl-phenylamino)-methylene]-1,3-dihydro-indol-2-one]	69	2280		
1880	COc1cccc(NC=C2C(=O)Nc3ccc(Cl)cc32)c1 [Example 57, 5-Chloro-3-[(3-methoxy-phenylamino)-methylene]-1,3-dihydro-indol-2-one]	60	5850		
360	Cc1cccc2c1C(=CNc1ccccc1)C(=O)N2 [Example 58, 4-Methyl-3-phenylaminomethylene-1,3-dihydro-indol-2-one]	86.6	≤ 1000	810	
180	COc1ccc(NC=C2C(=O)Nc3cccc(C)c32)cc1 [Example 59, 3-[(4-Methoxy-phenylamino)-methylene]-4-methyl-1,3-dihydro-indol-2-one]	86	1650		
280	Cc1cccc2c1C(=CNc1cccc(O)c1)C(=O)N2 [Example 60, 3-[(3-Hydroxy-phenylarmino)-methylene]-4-methyl-1,3-dihydro-indol-2-one]	94	1330		
530	COc1ccc(NC=C2C(=O)Nc3ccc(Cl)cc32)cc1O [Example 65, 3-[(3-Hydroxy-4-methoxyphenylamino)-methylene]-5-chloro-1,3-dihydro-indol-2-one]	95.5	1100		
430	CC(O)c1ccc(NC=C2C(=O)Nc3ccc(Cl)cc32)cc1 (stereo not drawn) [Example 72, 5-Chloro-3-{[4-(1-hydroxy-ethyl)-phenylamino]-methylene}-1,3-dihydro-indol-2-one]	81.5	1560		
260	COc1ccc(NC=C2C(=O)Nc3ccc(Cl)cc32)cc1 [Example 73, 3-[(4-Methoxyphenylamino)-methylene]-5-chloro-1,3-dihydro-indol-2-one]	56.5	3650		
380	CCOc1ccc(NC=C2C(=O)Nc3ccccc32)cc1 [Example 82, 3-[(4-Ethoxyphenylamino)-methylene]-1,3-dihydro-indol-2-one]		2500		
460	O=C1Nc2ccccc2C1=CNc1ccc(CCO)cc1 [Example 87, 3-{[4-(2-Hydroxyethyl)phenylamino]-methylene}-1,3-dihydro-indol-2-one]	79.5	2250		
410	O=C1Nc2ccccc2C1=CNc1ccc(CO)cc1 [Example 88, 3-[(4-Hydroxymethyl-phenylamino)-methylene]-1,3-dihydro-indol-2-one]	97.5	≤ 1000	1000	
220	Cc1cccc2c1C(=CNc1ccc3cn[nH]c3c1)C(=O)N2 [Example 90, 3-[(1H-Indazol-6-ylamino)-methylene]-4-methyl-1,3-dihydro-indol-2-one]	97.8			
240	COc1ccc(NC=C2C(=O)Nc3cccc(C)c32)cc1F [Example 91, 3-[(3-Fluoro-4-methoxy-phenylamino)-methylene]-4-methyl-1,3-dihydro-indol-2-one]	93.5	3020		
100	O=C1Nc2cc(F)ccc2C1=CNc1ccc(CCN2CCOCC2)cc1 [Example 311, 6-Fluoro-3-{[4-(2-morpholin-4-yl-ethyl)-phenylamino]-methylene}-1,3-dihydro-indol-2-one]				
